Test results published in ChEMBL document CHEMBL1201862, “PubChem BioAssay data set” (2004).
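Tested at 5 concentrations; 48 h exposure; 96-well plates; endpoints linearly interpolated, else capped at highest concentration. GI50: concentration for 50% inhibition of growth.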 The source made the active and inactive calls. Cut-off read from the data, not from the text of the source: active = GI50 up to about 1.1 µM and inactive = higher.

Experiments:
Test in all cases: NCI tumour cell line growth inhibition, 48 h
OVCAR-3 = tested on: OVCAR-3
786-0 = tested on: 786-0
SK-MEL-28 = tested on: SK-MEL-28
HCC 2998 = tested on: HCC 2998
HL-60 = tested on: HL-60
SNB-19 = tested on: SNB-19
U-251 = tested on: U-251
Malme-3M = tested on: Malme-3M
A549 = tested on: A549
OVCAR-5 = tested on: OVCAR-5
LOX IMVI = tested on: LOX IMVI
EKVX = tested on: EKVX
OVCAR-8 = tested on: OVCAR-8
ACHN = tested on: ACHN
UACC-62 = tested on: UACC-62
SK-MEL-2 = tested on: SK-MEL-2
NCI-H23 = tested on: NCI-H23

Measured: GI50

C=CCC(O)c1cc(OC)ccc1OC (stereo not drawn)
inactive: OVCAR-3 > 100 µM | 786-0 > 100 µM | SK-MEL-28 > 100 µM | HCC 2998 > 100 µM | HL-60 > 100 µM | SNB-19 > 100 µM | U-251 > 100 µM | Malme-3M > 100 µM | A549 > 100 µM | OVCAR-5 > 100 µM | LOX IMVI > 100 µM | EKVX > 100 µM | OVCAR-8 > 100 µM | ACHN > 100 µM | UACC-62 > 100 µM | SK-MEL-2 > 100 µM

COc1ccc(C2=NN(c3ccccc3)C[N+](c3ccc(C)cc3)=N2)cc1
inactive: OVCAR-3 23 µM | 786-0 43.6 µM | SK-MEL-28 58.9 µM | HCC 2998 > 100 µM | HL-60 27.7 µM | SNB-19 34.1 µM | U-251 20.6 µM | NCI-H23 41.3 µM | Malme-3M 48.3 µM | A549 59.7 µM | OVCAR-5 29.9 µM | LOX IMVI 32 µM | EKVX 44.3 µM | OVCAR-8 78.2 µM | ACHN 50.2 µM

CCc1ccc(Nc2ccc([N+](=O)[O-])cc2[N+](=O)[O-])cc1
inactive: OVCAR-3 44.4 µM | 786-0 > 100 µM | SK-MEL-28 > 100 µM | HCC 2998 > 100 µM | HL-60 26.8 µM | U-251 77.1 µM | NCI-H23 71.1 µM | Malme-3M > 100 µM | A549 40.9 µM | OVCAR-5 > 100 µM | EKVX 75.9 µM | OVCAR-8 97.7 µM | ACHN > 100 µM | UACC-62 56.6 µM | SK-MEL-2 > 100 µM

CC(=O)O[C@H]1CCC2[C@@H]3CCC4c5nonc5CC[C@]4(C)C3CC[C@@]21C (stereo partly drawn)
inactive: 786-0 > 10 µM | SK-MEL-28 > 10 µM | HCC 2998 > 10 µM | HL-60 > 10 µM | SNB-19 > 10 µM | U-251 > 10 µM | NCI-H23 > 10 µM | Malme-3M > 10 µM | A549 > 10 µM | OVCAR-5 > 10 µM | LOX IMVI > 10 µM | EKVX > 10 µM | OVCAR-8 > 10 µM | ACHN 88.7 µM | UACC-62 > 10 µM | SK-MEL-2 > 10 µM

CCOC(=O)/C(=C/c1cccc(C#N)c1)N(CC)CC
inactive: 786-0 > 100 µM | SK-MEL-28 > 100 µM | HCC 2998 > 100 µM | HL-60 > 100 µM | U-251 > 100 µM | NCI-H23 > 100 µM | Malme-3M > 100 µM | A549 > 100 µM | OVCAR-5 > 100 µM | LOX IMVI > 100 µM | EKVX > 100 µM | OVCAR-8 > 100 µM | ACHN > 100 µM | UACC-62 > 100 µM | SK-MEL-2 > 100 µM

NC(=O)N/N=C(/c1nc2ccc([N+](=O)[O-])cc2nc1O)C(O)c1ccco1 (stereo not drawn)
inactive: OVCAR-3 > 100 µM | 786-0 97.5 µM | SK-MEL-28 96.6 µM | HCC 2998 31 µM | HL-60 13.1 µM | SNB-19 > 100 µM | U-251 54.2 µM | NCI-H23 > 100 µM | Malme-3M > 100 µM | A549 93.8 µM | OVCAR-5 > 100 µM | LOX IMVI 21.6 µM | OVCAR-8 > 100 µM | ACHN 28.4 µM | UACC-62 29.2 µM

O=C(c1ccc(Cl)cc1)N(C(=S)N1CCN(c2ccccn2)CC1)c1ccccc1
inactive: OVCAR-3 66.4 µM | 786-0 > 100 µM | SK-MEL-28 > 100 µM | HL-60 32.7 µM | SNB-19 > 100 µM | U-251 > 100 µM | NCI-H23 > 100 µM | Malme-3M > 100 µM | A549 94.2 µM | OVCAR-5 > 100 µM | LOX IMVI > 100 µM | OVCAR-8 > 100 µM | ACHN > 100 µM | UACC-62 > 100 µM | SK-MEL-2 > 100 µM

Cc1c(C(=N)N)oc2ccccc12
inactive: OVCAR-3 > 100 µM | 786-0 > 100 µM | SK-MEL-28 > 100 µM | HCC 2998 > 100 µM | HL-60 > 100 µM | SNB-19 > 100 µM | U-251 > 100 µM | NCI-H23 > 100 µM | Malme-3M > 100 µM | A549 > 100 µM | LOX IMVI > 100 µM | EKVX > 100 µM | OVCAR-8 > 100 µM | ACHN > 100 µM | UACC-62 > 100 µM

O=C1c2ccccc2C(=O)C2C3c4ccccc4C(c4ccccc43)C12 (stereo not drawn)
inactive: OVCAR-3 19.5 µM | 786-0 5.45 µM | SK-MEL-28 29.8 µM | HCC 2998 36.3 µM | SNB-19 26.9 µM | U-251 31 µM | NCI-H23 41.7 µM | Malme-3M 13.1 µM | A549 28.7 µM | LOX IMVI 13.5 µM | EKVX 14.7 µM | OVCAR-8 12.6 µM | ACHN 30.6 µM | UACC-62 33 µM

COC(=O)c1cc2cc(OC)c(OC)cc2cc(C(=O)OC)c1=O
inactive: OVCAR-3 > 100 µM | 786-0 > 100 µM | HCC 2998 > 100 µM | HL-60 > 100 µM | SNB-19 > 100 µM | U-251 > 100 µM | NCI-H23 > 100 µM | Malme-3M > 100 µM | A549 > 100 µM | OVCAR-5 > 100 µM | LOX IMVI 87.3 µM | EKVX > 100 µM | OVCAR-8 > 100 µM | ACHN > 100 µM | UACC-62 > 100 µM | SK-MEL-2 > 100 µM

O=c1[nH][nH]c(=O)[nH]1
inactive: OVCAR-3 > 100 µM | 786-0 > 100 µM | SK-MEL-28 > 100 µM | HCC 2998 > 100 µM | HL-60 > 100 µM | SNB-19 > 100 µM | U-251 > 100 µM | NCI-H23 > 100 µM | Malme-3M > 100 µM | A549 > 100 µM | OVCAR-5 > 100 µM | LOX IMVI > 100 µM | EKVX > 100 µM | UACC-62 > 100 µM | SK-MEL-2 > 100 µM

N=C1NC2(O)C(=O)c3ccccc3C2(O)N1 (stereo not drawn)
inactive: OVCAR-3 > 100 µM | 786-0 > 100 µM | SK-MEL-28 > 100 µM | HL-60 > 100 µM | SNB-19 > 100 µM | U-251 > 100 µM | NCI-H23 > 100 µM | Malme-3M > 100 µM | A549 > 100 µM | OVCAR-5 > 100 µM | LOX IMVI > 100 µM | EKVX > 100 µM | OVCAR-8 > 100 µM | ACHN > 100 µM | UACC-62 > 100 µM | SK-MEL-2 > 100 µM

c1cncc(C2c3[nH]c4ccccc4c3CCN2CCN2CCCCC2)c1 (stereo not drawn)
inactive: OVCAR-3 > 100 µM | 786-0 > 100 µM | SK-MEL-28 46.7 µM | HCC 2998 > 100 µM | HL-60 41.5 µM | SNB-19 > 100 µM | U-251 > 100 µM | NCI-H23 > 100 µM | A549 > 100 µM | OVCAR-5 > 100 µM | LOX IMVI > 100 µM | EKVX > 100 µM | OVCAR-8 > 100 µM | ACHN > 100 µM | UACC-62 > 100 µM
